Experiments:
aged MuSCs = assay: Clonal aged MuSC proliferation and death by time-lapse microscopy in hydrogel microwells; format: cell-based, mouse
Source text: We assayed clonal muscle stem cell proliferation by time-lapse microscopy as previously described^5,6. Briefly, we treated isolated aged MuSCs with PGE2 (Cayman Chemical) or vehicle (DMSO) for 24 hr. After five days of growth on hydrogels, cells were reseeded at a density of 500 cells per cm^2 surface area in hydrogel microwells with 600 μm diameter. For time-lapse microscopy we monitored cell proliferation for those wells with single cells beginning 12 hr (day 0) to two days after seeding and recorded images every 3 min at 10× magnification using a PALM/AxioObserver Z1 system (Carl Zeiss MicroImaging) with a custom environmental control chamber and motorized stage. We changed medium every other day in between the acquisition time intervals. We analyzed time-lapse image sequences using the Baxter Algorithms for Cell Tracking and Lineage Reconstruction to identify and track single cells and generate lineage trees^5,6,8-10.
Viable and dead cells were distinguished in time-lapse sequences based on phase-contrast boundary and motility maintenance or loss, respectively. […] The values were estimated using the equations described in^6, and found in Table 1. We denote the proliferation rates in the two intervals p24 and p48 and the corresponding death rates d24 and d48. […] The modeled cell counts in the two time intervals are given by […]

MuSCs [1] = assay: Young MuSC numbers after acute PGE2 treatment, hydrogel culture (hemocytometer count); format: cell-based, mouse; details: young MuSCs, acute 1-day exposure, PGE2 10 ng/ml, one week later
Method: (§1) Following isolation, we resuspended MuSCs in myogenic cell culture medium containing DMEM/F10 (50:50), 15% FBS, 2.5 ng ml^−1 fibroblast growth factor-2 (FGF-2 also known as bFGF) and 1% penicillin-streptomycin. We seeded MuSC suspensions at a density of 500 cells per cm^2 surface area. We maintained cell cultures at 37° C. in 5% CO2 and changed medium daily. […]
(§2) To assay proliferation, we used three different assays (hemocytometer, VisionBlue, and EdU). […] For hemocytometer cell number count, we collected cells at indicated timepoints by incubation with 0.5% trypsin in PBS for 5 min at 37° C. and quantified them using a hemocytometer at least 3 times. Additionally, we used the VisionBlue Quick Cell Viability Fluorometric Assay Kit (BioVision, catalog #K303) as a readout for cell growth in culture. Briefly, we incubated MuSCs with 10% VisionBlue in culture medium for 3 h, and measured fluorescence intensity on a fluorescence plate reader (Infinite M1000 PRO, Tecan) at Ex=530-570 nm, Em=590-620 nm. […] We quantified EdU positive cells using the MetaMorph Image Analysis software (Molecular Devices). Data analyses were blinded, where researchers performing cell scoring were unaware of the treatment condition given to sample groups analyzed.

MuSCs [2] = assay: MuSC proliferation in charcoal stripped serum medium; format: cell-based, mouse; details: PGE2 10 ng/ml every two days, 7 days
Method: as §1, §2

gastrocnemius muscles = assay: Specific twitch force after treadmill run to exhaustion, aged mice (Example 2); format: in vivo, mouse; details: aged mice 18 months, 3 nM PGE2 after each of 10 daily runs, 4 weeks after last run
Method: The aged mice (18 months old) were subject to treadmill run to exhaustion daily for 10 days. The treadmill run was performed using the Exer3/6 (Columbus Instruments). Mice ran on the treadmill at 20 degrees downhill, starting at a speed of 10 meters/min. After 3 min, the speed was increased 1 meter/min to a final speed of 20 meters/min. Exhaustion was defined as the inability of the animal to remain on the treadmill despite electrical prodding. 2 h after each treadmill run, both gastrocnemius muscles of each mouse were injected with either PBS (control group) or 3 nM PGE2 (experimental group). The force measurement was performed 4 weeks after the last treadmill run using a […]-LR force transducer (Aurora Scientific) with a single 0.1 ms pulse at predetermined supramaximal stimulation intensity. The muscle force and synchronization pulses were recorded via a PCI-6251 acquisition card (National Instruments) and analyzed using Matlab. FIGS. 4O-4P show the specific muscle force values that were calculated by normalizing the force measurements with the muscle physiological cross-sectional area. […] Five repetitive measurements were made from each muscle. N=4 for the control group and n=5 for the PGE2 injected group. ** represents a statistical significant value of p<0.005 by 2-tailed Mann Whitney test.

MuSCs [3] = assay: cAMP activity assay (cAMP-Glo); format: cell-based, mouse; details: 1 hr PGE2 10 ng/ml
Method: MuSCs were treated with DMSO (vehicle) or PGE2 (10 ng/ml) for 1 h and cyclic AMP levels measured according to the cAMP-Glo Assay protocol optimized by the manufacturer (Promega). Each sample was assayed in triplicate and in two independent experiments.

MuSCs [4] = assay: EdU incorporation proliferation assay; format: cell-based, mouse; details: young MuSCs, PGE2 10 ng/ml
Method: (§3) To assay proliferation, we used three different assays (hemocytometer, VisionBlue, and EdU). For each, we seeded MuSCs on flat hydrogels (hemocytometer and VisionBlue) or collagen-coated plates (EdU assay) at a density of 500 cells per cm^2 surface area. For hemocytometer cell number count, we collected cells at indicated timepoints by incubation with 0.5% trypsin in PBS for 5 min at 37° C. and quantified them using a hemocytometer at least 3 times. Additionally, we used the VisionBlue Quick Cell Viability Fluorometric Assay Kit (BioVision, catalog #K303) as a readout for cell growth in culture. Briefly, we incubated MuSCs with 10% VisionBlue in culture medium for 3 h, and measured fluorescence intensity on a fluorescence plate reader (Infinite M1000 PRO, Tecan) at Ex=530-570 nm, Em=590-620 nm. We assayed proliferation using the Click-iT EdU Alexa Fluor 555 Imaging kit (Life Technologies). Briefly, we incubated live cells with EdU (20 μM) for 1 hr prior to fixation, and stained nuclei according to the manufacturer's guidelines together with anti-MYOGENIN (Santa Cruz, catalog #sc576, 1:250) to assay differentiation. […] We quantified EdU positive cells using the MetaMorph Image Analysis software (Molecular Devices). Data analyses were blinded, where researchers performing cell scoring were unaware of the treatment condition given to sample groups analyzed.

MuSCs [5] = assay: VisionBlue metabolic viability assay; format: cell-based, mouse; details: PGE2 1-200 ng/ml
Method: as §3

[6] = aged MuSCs, 1 day PGE2, 48 h tracking
[7] = first 24 hour interval, aged MuSC clones
[8] = second 24 hour interval, aged MuSC clones

Question: What does the source list for CCCCC[C@H](O)/C=C/[C@H]1[C@H](O)CC(=O)[C@@H]1C/C=C\CCCC(=O)O [PGE2, prostaglandin E2]?
Answer: percent increase in dead cell count (aged MuSCs; aged MuSC clones, acute PGE2): 0.1%; percent increase in live cell count (aged MuSCs; aged MuSC clones, acute PGE2, n=45 clones): 5.4%; cell death (aged MuSCs; [6]): profound reduction; cumulative cell numbers per clone (aged MuSCs; [6]): remarkable increase; Estimated death rate d24 (aged MuSCs; [7]): 0.0067 per hours; Estimated proliferation rate p24 (aged MuSCs; [7]): 0.0475 per hours; Estimated death rate d48 (aged MuSCs; [8]): 0.0012 per hours; Estimated proliferation rate p48 (aged MuSCs; [8]): 0.0538 per hours; increase in the number of MuSCs relative to controls (MuSCs [1]): 6 fold; proliferation of aged MuSCs in charcoal stripped serum medium (MuSCs [2]; aged MuSCs): rescued; division of growth arrested MuSCs in charcoal stripped serum medium (MuSCs [2]; young MuSCs): divided; specific twitch force of gastrocnemius muscles (gastrocnemius muscles): increase; intracellular cAMP (MuSCs [3]): elevated; cell division assayed by EDU incorporation (MuSCs [4]): increased; proliferation measured by VisionBlue (MuSCs [5]): Increase

— US11969433B2, “Compositions and methods for muscle regeneration using prostaglandin E2” (The Board of Trustees of the Leland Stanford Junior …, priority 2016, dated 2024)
